# Tested on: PC3 cells
# Experiment: NAMPT Cell Proliferation Assay
# Type: cell-based
# Conditions: 5 days incubation, cell viability by Cell Titer Glo
# Outline: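 Proliferation of PC3 cells treated 5 days with a 10-fold compound series (top 10 μM) was quantified by Cell Titer Glo luminescence; IC50s were fitted from percent inhibition.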
row,IC50 [nM],Structure (SMILES)
1,15.6,"Cc1nc(C(=O)N2CCC(c3ccc(C(=O)NCc4ccn5ccnc5c4)cc3)CC2)c2n1CCCC2 [Example 1099, Example 1099 N-(imidazo[1,2-a]pyridin-7-ylmethyl)-4-{1-[(3-meth-5,6,7,8-tetrahydroimidazo[1,5-a]pyridin-1-yl)carbonyl]piperidin-4-yl}benzamide]"

# Same assay, conditions: Homo sapiens, PC-3, 120 h, 5 days incubation, cell viability by Cell Titer Glo
row,Structure (SMILES),IC50 [nM]
1,"O=C(NCc1ccn2ccnc2c1)c1ccc(C2CCN(C(=O)c3ccc4scnc4c3)CC2)cc1 [Example 1085, 4-[1-(1,3-benzothiazol-5-ylcarbonyl)piperidin-4-yl]-N-(imidazo[1,2-a]pyridin-7-ylmethyl)benzamide]",25.6
2,"Cc1nn(C)c(C(=O)N2CCC(c3ccc(C(=O)NCc4ccn5ccnc5c4)cc3)CC2)c1Cl [Example 1087, 4-{1-[(4-chloro-1,3-dimethyl-1H-pyrazol-5-yl)carbonyl]piperidin-4-yl}-N-(imidazo[1,2-a]pyridin-7-ylmethyl)benzamide]",1.68
3,"COc1csc(C(=O)N2CCC(c3ccc(C(=O)NCc4ccn5ccnc5c4)cc3)CC2)c1 [Example 1092, N-(imidazo[1,2-a]pyridin-7-ylmethyl)-4-{1-[(4-methoxythiophen-2-yl)carbonyl]piperidin-4-yl}benzamide]",17.7
4,"N#Cc1ccc(C(=O)N2CCC(c3ccc(C(=O)NCc4ccn5ccnc5c4)cc3)CC2)s1 [Example 1093, 4-{1-[(5-cyanothiophen-2-yl)carbonyl]piperidin-4-yl}-N-(imidazo[1,2-a]pyridin-7-ylmethyl)benzamide]",565
5,"O=C(NCc1ccn2ccnc2c1)c1ccc(C2CCN(C(=O)c3ccc(C4CC4)cn3)CC2)cc1 [Example 1094, 4-{1-[(5-cyclopropylpyridin-2-yl)carbonyl]piperidin-4-yl}-N-(imidazo[1,2-a]pyridin-7-ylmethyl)benzamide]",68.8
6,"CCn1cc(C(=O)N2CCC(c3ccc(C(=O)NCc4ccn5ccnc5c4)cc3)CC2)c(C(C)C)n1 [Example 1096, 4-(1-{[1-ethyl-3-(propan-2-yl)-1H-pyrazol-4-yl]carbonyl}piperidin-4-yl)-N-(imidazo[1,2-a]pyridin-7-ylmethyl)benzamide]",2.07
7,"CC(C)n1ccc(CC(=O)N2CCC(c3ccc(C(=O)NCc4ccn5ccnc5c4)cc3)CC2)n1 [Example 1097, N-(imidazo[1,2-a]pyridin-7-ylmethyl)-4-(1-{[1-(propan-2-yl)-1H-pyrazol-3-yl]acetyl}piperidin-4-yl)benzamide]",64.7
8,"COc1cc(C(=O)N2CCC(c3ccc(C(=O)NCc4ccn5ccnc5c4)cc3)CC2)ncc1C [Example 1100, N-(imidazo[1,2-a]pyridin-7-ylmethyl)-4-{1-[(4-methoxy-5-methylpyridin-2-yl)carbonyl]piperidin-4-yl}benzamide]",8.7
9,"O=C(NCc1ccn2ccnc2c1)c1ccc(C2CCN(C(=O)c3scnc3Cl)CC2)cc1 [Example 1102, 4-{1-[(4-chloro-1,3-thiazol-5-yl)carbonyl]piperidin-4-yl}-N-(imidazo[1,2-a]pyridin-7-ylmethyl)benzamide]",1.77
10,"N#Cc1ccsc1C(=O)N1CCC(c2ccc(C(=O)NCc3ccn4ccnc4c3)cc2)CC1 [Example 1103, 4-{1-[(3-cyanothiophen-2-yl)carbonyl]piperidin-4-yl}-N-(imidazo[1,2-a]pyridin-7-ylmethyl)benzamide]",4.24
11,"CC(C(=O)N1CCC(c2ccc(C(=O)NCc3ccn4ccnc4c3)cc2)CC1)n1ccc(C2CC2)n1 (stereo not drawn) [Example 1106, 4-{1-[2-(3-cyclopropyl-1H-pyrazol-1-yl)propanoyl]piperidin-4-yl}-N-(imidazo[1,2-a]pyridin-7-ylmethyl)benzamide]",27.5
12,"CC1Cc2cccc(C(=O)N3CCC(c4ccc(C(=O)NCc5ccn6ccnc6c5)cc4)CC3)c2O1 (stereo not drawn) [Example 1107, N-(imidazo[1,2-a]pyridin-7-ylmethyl)-4-{1-[(2-methyl-2,3-dihydro-1-benzofuran-7-yl)carbonyl]piperidin-4-yl}benzamide]",2.26
13,"CC(C)c1nc(C(=O)N2CCC(c3ccc(C(=O)NCc4ccn5ccnc5c4)cc3)CC2)cs1 [Example 1108, N-(imidazo[1,2-a]pyridin-7-ylmethyl)-4-(1-{[2-(propan-2-yl)-1,3-thiazol-4-yl]carbonyl}piperidin-4-yl)benzamide]",20.1
14,"Cc1cc(C(=O)N2CCC(c3ccc(C(=O)NCc4ccn5ccnc5c4)cc3)CC2)nn1C(F)F [Example 1109, 4-(1-{[1-(difluoromethyl)-5-methyl-1H-pyrazol-3-yl]carbonyl}piperidin-4-yl)-N-(imidazo[1,2-a]pyridin-7-ylmethyl)benzamide]",9.21
15,"N#Cc1csc(C(=O)N2CCC(c3ccc(C(=O)NCc4ccn5ccnc5c4)cc3)CC2)c1 [Example 1110, 4-{1-[(4-cyanothiophen-2-yl)carbonyl]piperidin-4-yl}-N-(imidazo[1,2-a]pyridin-7-ylmethyl)benzamide]",111
16,"CC(C)c1nc(C(=O)N2CCC(c3ccc(C(=O)NCc4ccn5ccnc5c4)cc3)CC2)co1 [Example 1113, N-(imidazo[1,2-a]pyridin-7-ylmethyl)-4-(1-{[2-(propan-2-yl)-1,3-oxazol-4-yl]carbonyl}piperidin-4-yl)benzamide]",23.1
17,"COc1ncc(C)cc1C(=O)N1CCC(c2ccc(C(=O)NCc3ccn4ccnc4c3)cc2)CC1 [Example 1114, N-(imidazo[1,2-a]pyridin-7-ylmethyl)-4-{1-[(2-methoxy-5-methylpyridin-3-yl)carbonyl]piperidin-4-yl}benzamide]",21.8
18,"Cn1cc2c(C(=O)N3CCC(c4ccc(C(=O)NCc5ccn6ccnc6c5)cc4)CC3)cccc2n1 [Example 1116, N-(imidazo[1,2-a]pyridin-7-ylmethyl)-4-{1-[(2-methyl-2H-indazol-4-yl)carbonyl]piperidin-4-yl}benzamide]",6.19

# The remaining lines, values ahead:
row,IC50 [nM],Structure (SMILES)
1,14.8,"O=C(NCc1ccn2ccnc2c1)c1ccc(C2CCN(C(=O)c3cnc(C4CC4)s3)CC2)cc1 [Example 1084, 4-{1-[(2-cyclopropyl-1,3-thiazol-5-yl)carbonyl]piperidin-4-yl}-N-(imidazo[1,2-a]pyridin-7-ylmethyl)benzamide]"
2,9.93,"Cn1ncc2ccc(C(=O)N3CCC(c4ccc(C(=O)NCc5ccn6ccnc6c5)cc4)CC3)cc21 [Example 1086, N-(imidazo[1,2-a]pyridin-7-ylmethyl)-4-{1-[(1-methyl-1H-indazol-6-yl)carbonyl]piperidin-4-yl}benzamide]"
3,34.4,"CCc1ccc(C(=O)N2CCC(c3ccc(C(=O)NCc4ccn5ccnc5c4)cc3)CC2)nc1 [Example 1088, 4-{1-[(5-ethylpyridin-2-yl)carbonyl]piperidin-4-yl}-N-(imidazo[1,2-a]pyridin-7-ylmethyl)benzamide]"
4,8.27,"N#Cc1cnc(C(=O)N2CCC(c3ccc(C(=O)NCc4ccn5ccnc5c4)cc3)CC2)c(Cl)c1 [Example 1089, 4-{1-[(3-chloro-5-cyanopyridin-2-yl)carbonyl]piperidin-4-yl}-N-(imidazo[1,2-a]pyridin-7-ylmethyl)benzamide]"
5,5.42,"CC1CC(C#N)(C(=O)N2CCC(c3ccc(C(=O)NCc4ccn5ccnc5c4)cc3)CC2)C1 (stereo not drawn) [Example 1090, 4-{1-[(1-cyano-3-methylcyclobutyl)carbonyl]piperidin-4-yl}-N-(imidazo[1,2-a]pyridin-7-ylmethyl)benzamide]"
6,4.19,"CCc1c(C(=O)N2CCC(c3ccc(C(=O)NCc4ccn5ccnc5c4)cc3)CC2)nnn1CC [Example 1091, 4-{1-[(1,5-diethyl-1H-1,2,3-triazol-4-yl)carbonyl]piperidin-4-yl}-N-(imidazo[1,2-a]pyridin-7-ylmethyl)benzamide]"
7,4.45,"N#Cc1cc(F)c(C(=O)N2CCC(c3ccc(C(=O)NCc4ccn5ccnc5c4)cc3)CC2)c(F)c1 [Example 1095, 4-[1-(4-cyano-2,6-difluorobenzoyl)piperidin-4-yl]-N-(imidazo[1,2-a]pyridin-7-ylmethyl)benzamide]"
8,9.55,"O=C(NCc1ccn2ccnc2c1)c1ccc(C2CCN(C(=O)c3coc4ccccc34)CC2)cc1 [Example 1098, 4-[1-(1-benzofuran-3-ylcarbonyl)piperidin-4-yl]-N-(imidazo[1,2-a]pyridin-7-ylmethyl)benzamide]"
9,2.06,"O=C(NCc1ccn2ccnc2c1)c1ccc(C2CCN(C(=O)c3ccnn3C3CCCC3)CC2)cc1 [Example 1101, 4-{1-[(1-cyclopentyl-1H-pyrazol-5-yl)carbonyl]piperidin-4-yl}-N-(imidazo[1,2-a]pyridin-7-ylmethyl)benzamide]"
10,6.96,"CC(C)c1ncncc1C(=O)N1CCC(c2ccc(C(=O)NCc3ccn4ccnc4c3)cc2)CC1 [Example 1104, N-(imidazo[1,2-a]pyridin-7-ylmethyl)-4-(1-{[4-(propan-2-yl)pyrimidin-5-yl]carbonyl}piperidin-4-yl)benzamide]"
11,2.6,"CCCc1c(C(=O)N2CCC(c3ccc(C(=O)NCc4ccn5ccnc5c4)cc3)CC2)cnn1C [Example 1105, N-(imidazo[1,2-a]pyridin-7-ylmethyl)-4-{1-[(1-methyl-5-propyl-1H-pyrazol-4-yl)carbonyl]piperidin-4-yl}benzamide]"
12,62,"O=C(NCc1ccn2ccnc2c1)c1ccc(C2CCN(C(=O)c3cc4ccccn4n3)CC2)cc1 [Example 1111, N-(imidazo[1,2-a]pyridin-7-ylmethyl)-4-[1-(pyrazolo[1,5-a]pyridin-2-ylcarbonyl)piperidin-4-yl]benzamide]"
13,16.4,"O=C(NCc1ccn2ccnc2c1)c1ccc(C2CCN(C(=O)c3ccc4occc4c3)CC2)cc1 [Example 1112, 4-[1-(1-benzofuran-5-ylcarbonyl)piperidin-4-yl]-N-(imidazo[1,2-a]pyridin-7-ylmethyl)benzamide]"
14,21.2,"COc1ccc(C(=O)N2CCC(c3ccc(C(=O)NCc4ccn5ccnc5c4)cc3)CC2)nc1OC [Example 1115, 4-{1-[(5,6-dimethoxypyridin-2-yl)carbonyl]piperidin-4-yl}-N-(imidazo[1,2-a]pyridin-7-ylmethyl)benzamide]"

# Source: US9187472B2 (AbbVie Inc., priority 2012, dated 2015)
